ChEMBL document CHEMBL1201862, “PubChem BioAssay data set” (2004)
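Growth conditions: 96-well plates. Treatment: test compound, 48 hours, 5 concentrations. Analysis: linear interpolation between bracketing concentrations; unreached endpoints set to highest concentration. Abbreviation: GI50, concentration required for 50% inhibition of growth.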 Calls of active or inactive are those of the source. Rule as the data show it: active = GI50 up to about 1.1 µM and inactive = higher.

Experiments:
Assay in all cases: inhibition of tumour cell growth, NCI panel, 48 h
A549 = system: A549
CCRF-CEM = system: CCRF-CEM
EKVX = system: EKVX
HCC 2998 = system: HCC 2998
HT-29 = system: HT-29
Hs-578T = system: Hs-578T
K562 = system: K562
MDA-MB-231 = system: MDA-MB-231
MDA-MB-435 = system: MDA-MB-435
MDA-N = system: MDA-N
MOLT-4 = system: MOLT-4
NCI-H226 = system: NCI-H226
NCI-H23 = system: NCI-H23
NCI/ADR-RES = system: NCI/ADR-RES
OVCAR-3 = system: OVCAR-3
OVCAR-5 = system: OVCAR-5
PC-3 = system: PC-3
RXF 393 = system: RXF 393
SK-MEL-2 = system: SK-MEL-2
UACC-257 = system: UACC-257

Row | SMILES | GI50 (A549) | GI50 (CCRF-CEM) | GI50 (EKVX) | GI50 (HCC 2998) | GI50 (HT-29) | GI50 (Hs-578T) | GI50 (K562) | GI50 (MDA-MB-231) | GI50 (MDA-MB-435) | GI50 (MDA-N) | GI50 (MOLT-4) | GI50 (NCI-H226) | GI50 (NCI-H23) | GI50 (NCI/ADR-RES) | GI50 (OVCAR-3) | GI50 (OVCAR-5) | GI50 (PC-3) | GI50 (RXF 393) | GI50 (SK-MEL-2) | GI50 (UACC-257)
1 | O=[As](O)(O)c1ccc(Cc2ccc([As](=O)(O)O)cc2)cc1 | 1.81 µM (inactive) | 0.0813 µM (active) | 1.13 µM (inactive) | 1.91 µM (inactive) | 0.778 µM (active) | 1.33 µM (inactive) | 0.265 µM (active) | 1.01 µM (active) | 0.577 µM (active) | 0.421 µM (active) | 0.457 µM (active) | 3.78 µM (inactive) | 0.773 µM (active) | 1.48 µM (inactive) | 0.839 µM (active) | 2.34 µM (inactive) | 0.546 µM (active) | 0.413 µM (active) | 1.35 µM (inactive) | 0.499 µM (active)
2 | N=C(N)Nc1ccc(-c2ccc(NC(=N)N)cc2)cc1 | 6.03 µM (inactive) | 37.3 µM (inactive) | 40.3 µM (inactive) | 63 µM (inactive) | 45.5 µM (inactive) | 19.4 µM (inactive) | 35.4 µM (inactive) | > 100 µM (inactive) | 55 µM (inactive) | 40.7 µM (inactive) | > 100 µM (inactive) | 15.7 µM (inactive) | 35.6 µM (inactive) | 42.5 µM (inactive) | 22 µM (inactive) | 11.9 µM (inactive) | 15.7 µM (inactive) | 22.4 µM (inactive) | 34.4 µM (inactive) | > 73.5 µM (inactive)
3 | C/C(=N\Nc1nc2ccccc2n1C)c1ccc2ccccc2n1 | 2.71 µM (inactive) | 0.244 µM (active) | 0.144 µM (active) | 0.256 µM (active) | 0.0861 µM (active) | 15.4 µM (inactive) | 2.07 µM (inactive) | 0.916 µM (active) | 4.24 µM (inactive) | 5.04 µM (inactive) | 0.414 µM (active) | 1.87 µM (inactive) | 4.41 µM (inactive) | 1.63 µM (inactive) | 0.0489 µM (active) | 1.53 µM (inactive) | 0.212 µM (active) | 5.2 µM (inactive) | 6.56 µM (inactive) | 4.36 µM (inactive)
4 | CC1(C)CCCCC1/C=C/C(CC(O)(C(F)(F)F)C(F)(F)F)=N\Nc1ccc([N+](=O)[O-])cc1[N+](=O)[O-] (stereo not drawn) | 1.26 µM (inactive) | 0.662 µM (active) |  | 4.55 µM (inactive) | 1.76 µM (inactive) | 0.575 µM (active) | 0.368 µM (active) | 2.03 µM (inactive) | 0.49 µM (active) | 2.84 µM (inactive) | 0.807 µM (active) | 0.498 µM (active) | 0.29 µM (active) | 4.32 µM (inactive) | 0.409 µM (active) | 1.57 µM (inactive) | 0.333 µM (active) | 0.406 µM (active) | 3.18 µM (inactive) | 0.962 µM (active)
5 | COC1CC(C)([N+](=O)[O-])C(O)C(C)O1 (stereo not drawn) | > 100 µM (inactive) | > 100 µM (inactive) | > 100 µM (inactive) | > 100 µM (inactive) | > 100 µM (inactive) | > 100 µM (inactive) | > 100 µM (inactive) | > 100 µM (inactive) | > 100 µM (inactive) | > 100 µM (inactive) | > 100 µM (inactive) | > 100 µM (inactive) | > 100 µM (inactive) | > 100 µM (inactive) | > 100 µM (inactive) | > 100 µM (inactive) | > 100 µM (inactive) | > 100 µM (inactive) | > 100 µM (inactive) | > 100 µM (inactive)
6 | CCCC(CC)c1c(O)c(O)c(C(CC)CCC)c(C(CC)CCC)c1C(CC)CCC (stereo not drawn) | > 10 µM (inactive) | > 10 µM (inactive) | > 10 µM (inactive) | > 10 µM (inactive) | > 10 µM (inactive) | > 10 µM (inactive) | > 10 µM (inactive) | > 10 µM (inactive) | > 10 µM (inactive) | > 10 µM (inactive) |  | > 10 µM (inactive) | > 10 µM (inactive) | > 10 µM (inactive) | > 10 µM (inactive) | > 10 µM (inactive) | > 10 µM (inactive) | > 10 µM (inactive) | > 10 µM (inactive) | > 10 µM (inactive)
7 | O=C1OC(c2ccccc2)N/C1=C\c1ccc2c(c1)OCO2 (stereo not drawn) | > 100 µM (inactive) | 33.6 µM (inactive) | > 100 µM (inactive) | 54.2 µM (inactive) | > 100 µM (inactive) | 72.9 µM (inactive) | > 100 µM (inactive) | > 100 µM (inactive) | > 100 µM (inactive) | > 75.9 µM (inactive) | > 63.1 µM (inactive) | 34 µM (inactive) | > 100 µM (inactive) | > 52.2 µM (inactive) | 79.3 µM (inactive) | > 100 µM (inactive) | > 100 µM (inactive) | > 100 µM (inactive) | > 77.1 µM (inactive) | > 100 µM (inactive)
